IC50 data for seven compounds are collected here from publication PMC3445454, “Broad and Cross-Clade CD4^+ T-Cell Responses Elicited by a DNA Vaccine Encoding Highly Conserved and Promiscuous HIV-1 M-Group Consensus Peptides” (PLoS ONE, 2012).

Numbering of substitutions follows the chain as printed. Read-outs that look alike come from different tables or passages of the source. Ends that are not written are not given here.

Holding throughout (experiment): biochemical
Experiment [1] deals with T1, HLA-DP DPA1*01:03/DPB1*20:01 (Homo sapiens, UniProt P04440+P20036, A65V/A84D/A85E/E86D/F38Y/G113D/G114E/G40L/I94L/L37V/M116V/P115A/R125K/T199I).
T1 sequence (P20036 29-260): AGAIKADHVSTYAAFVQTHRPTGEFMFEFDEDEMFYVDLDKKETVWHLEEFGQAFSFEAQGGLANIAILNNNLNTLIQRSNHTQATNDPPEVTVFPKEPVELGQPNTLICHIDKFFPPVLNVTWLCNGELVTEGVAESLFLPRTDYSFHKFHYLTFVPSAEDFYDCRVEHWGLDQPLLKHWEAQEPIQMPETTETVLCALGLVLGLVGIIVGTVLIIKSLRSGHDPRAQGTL
T1 sequence (P04440 30-258 L37V/F38Y/G40L/A65V/A84D/A85E/E86D/I94L/G113D/G114E/P115A/M116V/R125K/T199I/V234M): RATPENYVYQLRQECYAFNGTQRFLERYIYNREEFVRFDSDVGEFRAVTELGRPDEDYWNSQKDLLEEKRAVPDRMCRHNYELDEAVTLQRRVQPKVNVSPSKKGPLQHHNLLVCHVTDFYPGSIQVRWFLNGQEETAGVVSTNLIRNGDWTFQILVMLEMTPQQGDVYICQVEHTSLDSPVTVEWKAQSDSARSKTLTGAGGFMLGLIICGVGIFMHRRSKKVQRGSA
It is filed as binding.

The target in experiment [2] is T2, HLA-DP DPA1*01:03/DPB1*04:01 (Homo sapiens, UniProt P04440+P20036).
T2 sequence (P20036 29-260): T1 sequence (P20036 29-260)
T2 sequence (P04440 30-258): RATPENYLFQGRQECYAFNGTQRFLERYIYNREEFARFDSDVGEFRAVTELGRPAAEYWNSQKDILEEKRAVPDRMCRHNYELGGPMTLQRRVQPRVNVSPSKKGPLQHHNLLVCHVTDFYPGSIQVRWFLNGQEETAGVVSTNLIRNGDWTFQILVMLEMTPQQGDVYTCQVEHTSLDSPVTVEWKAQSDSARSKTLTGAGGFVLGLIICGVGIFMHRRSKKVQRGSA
Format: binding.

Another experiment concerns the target HLA-DR DRB1*10:01 (Homo sapiens, UniProt P01903+P01911, A100R/A169T/D57E/F55L/F60V/F69Y/F76Y/I96L/L162R/M171V/P40V/Q260P/Q39E/Q99R/R195Q/R42F/S149N/S66Y/T210M/V115G/V67A/W38E/Y59R/Y61H). It is filed as binding. Conditions: read-out: Binding capacity/IC50 (nM) DRB1*10:01.
A further experiment concerns the target HLA-DR DRB1*07:01 (Homo sapiens, UniProt P01903+P01911, A100R/A102G/A103Q/D57E/D86V/E43K/F76Y/K127E/L162R/M171V/P40G/Q125H/Q99D/R33Q/R42Y/R54Q/S133A/S66F/T210M/V115G/Y107V/Y59L/Y89S). Format: binding.
In experiment [3] the target is HLA-DP DPA1*02:01/DPB1*01:01 (Homo sapiens, UniProt P04440+P20036, F191V/F38Y/F64Y/G113D/G114E/K142R/L158P/L37V/M105V/M116V/M62Q/P115A/Q81R/R125K/R223Q/T114A/T199I/T259P).
The next experiment deals with HLA-DR DRB1*11:01 (Homo sapiens, UniProt P01903+P01911, A100R/A169T/A87E/I96F/K41T/L162R/M171V/P40S/Q125H/Q178H/Q39Y/Q99D/R42S/S66Y/T262R/V115G/W38E). It is filed as binding.
In a further experiment the target is HLA-DR DRB5*01:01 (Homo sapiens, UniProt P01903+Q30154). It is filed as binding.
A further experiment addresses HLA-DR DRB1*09:01 (Homo sapiens, UniProt P01903+P01911, A100R/A103E/D57H/D86V/F55Y/F60I/F76Y/I96F/K127E/L162R/M171V/P40D/Q125H/Q99R/R33Q/R42F/S133A/S66N/T210M/V115G/W38K/Y107V/Y59G/Y89S). Format: binding.
The target in experiment [4] is T3, HLA-DP DPA1*02:01/DPB1*05:01 (Homo sapiens, UniProt P04440+P20036, A65V/A84E/F191V/F64L/G113D/G114E/K142R/L158P/M116V/M62Q/P115A/Q81R/R125K/T114A/T199I/T259P/V234M).
T3 sequence (P20036 29-260 A42M/M62Q/Q81R/T114A/K142R/L158P/F191V/T259P): T1 sequence (P20036 29-260) with A14M, M34Q, Q53R, T86A, K114R, L130P, F163V, T231P
T3 sequence (P04440 30-258 F64L/A65V/A84E/G113D/G114E/P115A/M116V/R125K/T199I/V234M): T1 sequence (P04440 30-258 L37V/F38Y/G40L/A65V/A84D/A85E/E86D/I94L/G113D/G114E/P115A/M116V/R125K/T199I/V234M) with V8L, Y9F, L11G, F35L, D55E, E56A, D57E, L65I
It is filed as binding.

The target in another experiment is HLA-DR DRB3*01:01 (Homo sapiens, UniProt P01903+P79483). It is filed as binding.
The target of the next experiment is HLA-DR DRB1*03:01 (Homo sapiens, UniProt P01903+P01911, A100K/A102G/A103R/A169T/F55Y/I96L/K41T/L162R/M171V/P40S/Q125H/Q178H/Q39Y/R42S/S66N/T106N/T262R/W38E/Y61H). Format: binding.
[5] abbreviates: read-out: Binding capacity/IC50 (nM) DPA1*01:03 DPB1*20:01.
Where [6] appears, read: read-out: Binding capacity/IC50 (nM) DRB1*07:01.
The mark [7] stands for this setting: read-out: Binding capacity/IC50 (nM) DRB1*11:01.
The mark [8] stands for this setting: read-out: Binding capacity/IC50 (nM) DRB5*01:01.
Where [9] appears, read: read-out: Binding capacity/IC50 (nM) DRB1*09:01.
The mark [10] stands for this setting: read-out: Binding capacity/IC50 (nM) DPA1*02:01 DPB1*05:01.
Setting [11] is: read-out: Binding capacity/IC50 (nM) DRB1*03:01.
Setting [12] is: read-out: Binding capacity/IC50 (nM) DPA1*01:03 DPB1*04:01.
Setting [13] is: read-out: Binding capacity/IC50 (nM) DRB3*01:01.

Sequence of HLA-DP DPA1*02:01/DPB1*01:01 (P20036 29-260 A42M/M62Q/Q81R/T114A/K142R/L158P/F191V/T259P, other chains not shown): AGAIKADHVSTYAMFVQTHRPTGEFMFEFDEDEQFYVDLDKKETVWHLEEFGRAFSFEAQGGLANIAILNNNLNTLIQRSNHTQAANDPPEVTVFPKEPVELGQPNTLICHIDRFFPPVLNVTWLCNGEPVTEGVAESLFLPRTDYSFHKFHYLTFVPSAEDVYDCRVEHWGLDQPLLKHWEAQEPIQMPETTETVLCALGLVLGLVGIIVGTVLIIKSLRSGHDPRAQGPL
Sequence of HLA-DR DRB1*03:01 (P01903 26-254 limits assumed, other chains not shown): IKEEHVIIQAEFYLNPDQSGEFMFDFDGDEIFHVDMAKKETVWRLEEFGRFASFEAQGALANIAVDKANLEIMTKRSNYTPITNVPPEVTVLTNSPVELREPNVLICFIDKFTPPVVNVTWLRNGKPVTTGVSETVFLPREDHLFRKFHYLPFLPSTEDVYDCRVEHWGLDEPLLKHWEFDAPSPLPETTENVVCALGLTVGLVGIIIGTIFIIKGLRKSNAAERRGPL
Sequence of HLA-DR DRB1*11:01 (P01903 26-254 limits assumed, other chains not shown): as above

For the compound `CC[C@H](C)[C@H](NC(=O)[C@@H]1CCCN1C(=O)[C@H](CCC(=O)O)NC(=O)[C@@H](N)CCCCN)C(=O)N[C@H](C(=O)NCC(=O)N[C@@H](C)C(=O)N[C@@H](CCC(=O)O)C(=O)N[C@H](C(=O)N[C@@H](Cc1ccccc1)C(=O)N[C@@H](Cc1ccc(O)cc1)C(=O)N[C@H](C(=O)N[C@@H](CC(=O)O)C(=O)NCC(=O)N[C@@H](C)C(N)=O)C(C)C)[C@@H](C)O)C(C)C` [RT(431-445)], the IC50 was 26100 nM in experiment [1] (setting [5]); 4660 nM in experiment [2]; 4.4 nM at HLA-DR DRB1*10:01; 75 nM on HLA-DR DRB1*07:01 (setting [6]); 205 nM in [3]; 3190 nM at HLA-DR DRB1*11:01 (setting [7]). Besides, the IC50 was 148 nM on HLA-DR DRB5*01:01 (setting [8]), 23 nM on HLA-DR DRB1*09:01 (setting [9]), > 30000 nM in experiment [4] (setting [10]) and 13 nM on HLA-DR DRB3*01:01.
Turning to `CC[C@H](C)[C@H](NC(=O)CNC(=O)[C@H](CCCCN)NC(=O)[C@H](Cc1c[nH]cn1)NC(=O)[C@H](C)NC(=O)[C@@H]1CCCN1C(=O)[C@@H](NC(=O)[C@H](Cc1c[nH]c2ccccc12)NC(=O)[C@H](CO)NC(=O)[C@H](CC(C)C)NC(=O)[C@H](Cc1ccc(O)cc1)NC(=O)[C@@H](NC(=O)[C@H](CCCCN)NC(=O)[C@H](CCC(=O)O)NC(=O)[C@@H](N)CCCCN)C(C)C)C(C)C)C(=O)NCC(=O)NCC(=O)N[C@@H](CC(N)=O)C(=O)N[C@@H](CCC(=O)O)C(N)=O` [RT(528-546)], the IC50 was found to be 612 nM at HLA-DR DRB1*03:01 (setting [11]); 6 nM in experiment [1]; 1390 nM in experiment [2] (setting [12]); 6.3 nM on HLA-DR DRB1*07:01 (setting [6]); 585 nM in [3]; 3150 nM on HLA-DR DRB1*11:01 (setting [7]). Also, the IC50 at HLA-DR DRB5*01:01 (setting [8]) is 16 nM; at HLA-DR DRB1*09:01 (setting [9]) it was 33 nM; in [4] (setting [10]), 3560 nM; at HLA-DR DRB3*01:01, 576 nM.
As for DEELLKAVRIIKILYQSNP-NH2 [rev(9-27)], the IC50 came to 632 nM at HLA-DR DRB1*03:01 (setting [11]); 202 nM in [1] (setting [5]); 637 nM in experiment [2]; 3.9 nM at HLA-DR DRB1*10:01; 41 nM at HLA-DR DRB1*07:01 (setting [6]); 461 nM in [3]. Moreover, the IC50 amounted to 2120 nM at HLA-DR DRB1*11:01 (setting [7]), 124 nM on HLA-DR DRB1*09:01 (setting [9]), 370 nM in [4] (setting [10]) and 978 nM on HLA-DR DRB3*01:01 (setting [13]).
“IRYPLTFGWCFKLVPVDPREVEEA-NH2 [nef(133-156)]”: the IC50 on HLA-DR DRB1*03:01 (setting [11]) was found to be 704 nM; in experiment [1] (setting [5]), 13000 nM; in [2] (setting [12]), 44 nM; at HLA-DR DRB1*07:01 (setting [6]), 472 nM; in [3] it was 249 nM; at HLA-DR DRB1*11:01 (setting [7]), 4540 nM. Further, the IC50 on HLA-DR DRB5*01:01 is 317 nM; at HLA-DR DRB1*09:01 (setting [9]), 360 nM; in experiment [4] (setting [10]) it was 4780 nM; on HLA-DR DRB3*01:01 (setting [13]), 3440 nM.
LNKIVRMYSPVSILDI-NH2 [p24(138-153)]: the IC50 in [1] (setting [5]) is 3 nM; in experiment [2], 47 nM; on HLA-DR DRB1*10:01, 6.6 nM; in [3] it was 26 nM; on HLA-DR DRB1*11:01 (setting [7]) it was 79 nM; on HLA-DR DRB1*09:01 (setting [9]), 36 nM. For the same compound, the IC50 in [4] (setting [10]) amounted to 220 nM.
As for “NYPIVQNLQGQMVHQAISPR-NH2 [p17(131-132)/p24(1-18)]”, the IC50 is 952 nM in [1] (setting [5]); 1550 nM in experiment [2] (setting [12]); 59 nM at HLA-DR DRB1*10:01; 5420 nM at HLA-DR DRB1*07:01 (setting [6]); 2870 nM in experiment [3]; 1130 nM on HLA-DR DRB1*11:01 (setting [7]). The IC50 at HLA-DR DRB1*09:01 (setting [9]) came to 248 nM; in experiment [4], 2520 nM; against HLA-DR DRB3*01:01, 517 nM.
For VGSLQYLALTALITPKK-NH2 [vif(142-158)], the IC50 stood at 4510 nM at HLA-DR DRB1*03:01; 262 nM in experiment [1]; 33 nM in experiment [2] (setting [12]); 4.1 nM at HLA-DR DRB1*07:01; 115 nM in experiment [3]; 48 nM at HLA-DR DRB1*11:01. For the same compound, the IC50 against HLA-DR DRB5*01:01 is 2.4 nM; against HLA-DR DRB1*09:01, 64 nM; in [4] (setting [10]), 20 nM; at HLA-DR DRB3*01:01 (setting [13]), 942 nM.
